Experimental data from US20040186122A1, “Method of treating acute pain with a unitary dosage form comprising ibuprofin and oxycodone” (Forest Laboratories, Inc., priority 2002, published 2004).

How the values were obtained:
[1] = tertiary amine; cited from earlier work
Caco-2 cell monolayers [2] = assay: Membrane integrity (TEER) of Caco-2 cell monolayers before and after transport; assay type: cell-based; conditions: at the concentrations used; TEER 980-1002 Ωcm^2 before, not changed after transport
Procedure: Each treatment was performed in triplicate. […] Samples then underwent LC/MS/MS analysis.

[3] = cited from earlier work
Caco-2 cell monolayers [4] = assay: Transport (Papp) across Caco-2 cell monolayers, AP to BL; conditions: after the initial 20-minute transport period
[5] = as above; conditions: human, Caco-2, Apparent permeability coefficients of oxycodone (±standard deviation) (n = 3); for Papp A→B at 20 min, 0.02 mg/ml: after 20 minutes; for Papp A→B at 80 min, 0.02 mg/ml: oxycodone 0.02 mg/ml, AP-to-BL
in vitro = conditions: human, Caco-2, Apparent permeability coefficients of ibuprofen (±standard deviation) (n = 3)

Compound: COc1ccc2c3c1O[C@H]1C(=O)CC[C@@]4(O)[C@@H](C2)N(C)CC[C@]314.Cl [oxycodone HCl, oxycodone hydrochloride]
- pKa [1]: about 9
- integrity of Caco-2 cell monolayers (TEER) (Caco-2 cell monolayers [2]): did not compromise the integrity
- absolute bioavailability ([3]; literature (Leow et al. 1992)): 87%
- percentage of transported oxycodone from apical to basolateral compartment (Caco-2 cell monolayers [4]; ibuprofen 0.8 mg/ml): 20%
- percentage of transported oxycodone from apical to basolateral compartment (Caco-2 cell monolayers [4]; ibuprofen 1.6 mg/ml): 19%
- transport of oxycodone, effect of ibuprofen (Caco-2 cell monolayers [4]; ibuprofen 3.2 mg/ml (precipitating)): did not increase the transport
- percentage of transported oxycodone from apical to basolateral compartment (Caco-2 cell monolayers [4]; no ibuprofen): 15%
- Papp A→B at 20 min, 0.02 mg/ml ([5]; ibuprofen 0 mg/ml): 150 ± 9 nm/s
- Papp A→B at 20 min, 0.02 mg/ml ([5]; ibuprofen 0.8 mg/ml): 200 ± 6 nm/s
- Papp A→B at 20 min, 0.02 mg/ml ([5]; ibuprofen 1.6 mg/ml): 190 ± 3 nm/s
- Papp A→B at 20 min, 0.02 mg/ml ([5]; ibuprofen 3.2 mg/ml): 160 ± 7 nm/s
- Papp A→B at 80 min, 0.02 mg/ml ([5]; ibuprofen 0 mg/ml): 542 ± 9 nm/s
- Papp A→B at 80 min, 0.02 mg/ml ([5]; ibuprofen 0.8 mg/ml): 569 ± 14 nm/s
- Papp A→B at 80 min, 0.02 mg/ml ([5]; ibuprofen 1.6 mg/ml): 551 ± 13 nm/s
- Papp A→B at 80 min, 0.02 mg/ml ([5]; ibuprofen 3.2 mg/ml (precipitate)): 505 ± 5 nm/s

Compound: CC(C)Cc1ccc(C(C)C(=O)O)cc1 (stereo not drawn) [ibuprofen]
- integrity of Caco-2 cell monolayers (TEER) (Caco-2 cell monolayers [2]): did not compromise the integrity
- Papp A→B at 80 min, 0.2 mg/ml (in vitro): 565 ± 43 nm/s
- bioavailability ([3]; literature (Hall et al. 1993)): ~100%
